Assay results published in patent US20130244929A1 (priority 2010, published 2013).
Read-outs that look alike come from different tables or passages of the source.

Columns and labels:
[1] = molecular target: T1, SpsB (Staphylococcus aureus, UniProt P0A070); experiment: Inhibition of SpsB enzyme activity (fluorescence-based assay, bacterial membrane fraction); assay type: biochemical
T1 construct: using a bacterial membrane fraction as a source of SpsB; from tissue
T1 sequence (P0A070 1-191): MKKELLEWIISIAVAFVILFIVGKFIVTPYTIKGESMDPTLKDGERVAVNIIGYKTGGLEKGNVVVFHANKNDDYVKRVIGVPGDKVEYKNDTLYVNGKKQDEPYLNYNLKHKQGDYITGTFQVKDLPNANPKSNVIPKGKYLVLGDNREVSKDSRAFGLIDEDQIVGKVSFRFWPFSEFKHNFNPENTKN
How it was run: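 Membrane fraction from bacteria supplied SpsB (0.6 mg/mL final protein), added last to start reactions with 20 μM lipopeptide substrate decanoyl-K(DABCYL)-TPTAKA↓ASKKD-D(EDANS)-NH2 (Km≈5 μM). Cleavage was followed as rising fluorescence, excitation 340/emission 460 nm.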

[2] = system: MB 5393 (COL), a methicillin-resistant S. aureus strain; experiment: Determination of minimum and synergistic inhibitory concentration; assay type: cell-based; settings: for SIC: presence of imipenem (4 μg/mL); for MIC: Staphylococcus aureus
How it was run: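 Broth microdilution: two-fold compound dilutions (final 64 to 0.0313 μg/mL) tested with and without subinhibitory imipenem (4 μg/mL) against MRSA COL at ~5×10^5 CFU/mL, 37°C, 22-24 hr stationary. MIC is lowest concentration preventing visible growth without imipenem; SIC same with imipenem.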

[3] = system: MRSA strain COL; experiment: Checkerboard studies with imipenem; assay type: cell-based, Staphylococcus aureus; settings: combined with Imipenem, FIG. 1
Protocol: FIG. 1: An SpsB inhibitor and Imipenem synergize to inhibit bacterial growth in vitro. The MIC of SpsB inhibitor on the MRSA strain COL was assessed by varying the concentration of the compound (0.016-16 μg/ml) in the absence and presence of various concentrations of Imipenem (0.5-32 μg/ml) and FIC values were generated for both compounds.
The checkerboard method is the technique most frequently used to assess antimicrobial combinations in vitro. See Antibiotics in Laboratory Medicine, Victor Lorian ed., 2005). The checkerboard comprises a two-dimensional dilution scheme: columns in which each well contains the same amount of Drug A being two-fold diluted along the x-axis, and rows in which each well contains the same amount of Drug B being two-fold diluted on the Y-axis. The result is that each well contains a unique combination of the two drugs being tested. Also tested is the antimicrobial activity of each agent singly.
Imipenem was two-fold serially diluted along the Y-axis of 96-well U-bottom microtiter dishes (Fisher Scientific) in microbiological growth media (either brain heart infusion broth or cation-adjusted Mueller-Hinton broth +2% NaCl). […]
In this representation, data are expressed as fractional inhibitory concentrations (FIC), defined as the ratio between the MIC of one compound in the presence of the other, over its MIC alone. […]

[4] = system: Staphylococcus aureus (strain B, MRSA COL); experiment: Deep thigh MRSA infection mouse model; assay type: in vivo, mice BALB/c
Protocol: (§1) Female mice BALB/c mice (20-25 g) were rendered neutropenic via intraperitoneal injection of cyclophosphamide (Mead Johnson Pharmaceuticals) on Day −4 (250 mg/kg, disseminated) or Days −4/−1 (150/100 mg/kg, deep thigh) prior to experimental infection. Neutropenic mice were infected on Day 0 via intraperitoneal (disseminated) or intramuscular (deep thigh) injection of 0.1 ml containing ˜1-5×10^4 CFU Staphylococcus aureus (strain B, MRSA COL). Linezolid (Zyvox IV solution, Bell Medical) was employed as an assay control. Fifteen minutes post infection, increasing doses of Example 3 (20, 40 and 80 mg/kg) or vehicle were administered subcutaneously (SC) TID with or without Imipenem/Cilastatin (6/50 mg/kg SC TID, disseminated; 10/50 mg/kg SC TID, deep thigh). Twenty four hours post dosing, mice were euthanized and infected kidneys (disseminated) or thighs (deep thigh) were aseptically removed, placed in 4 ml sterile phosphate buffered saline (Fisher Scientific), and homogenized using a Polytron (Brinkmann Instruments). Homogenates were serially 100-fold diluted in 9.9 ml sterile saline and plated on Mannitol Salt Agar plates. Plates were incubated at 35° C. for 48 hours and colony forming units (CFU) of bacteria remaining per thigh were determined.

[5] = system: Staphylococcus aureus (strain B, MRSA COL); experiment: Disseminated MRSA infection mouse model; assay type: in vivo, mice BALB/c
Protocol: as §1

[6] = from COC(=O)[C@H](Cc1ccc(OC)c(B2OC(C)(C)C(C)(C)O2)c1)NC(=O)[C@H](C)NC(=O)[C@@H](NC(=O)OC(C)(C)C)c1ccc(OC)c(I)c1; cc_pd bond; PdCl2(dppf); acetonitrile; 70.3 mM; 44.0 °C; 3.0 h
[7] = MRSA COL, absence of imipenem, 22 hours, read-out: MIC

SMILES	IC50 [1] [nM]	SIC ([2]; MRSA COL, 22 hours)	MIC ([2]; MRSA, 22 h) [µg/mL]	other results
CCCc1ccc(-c2ccc(C(=O)NCCC(=O)N[C@@H](CCCCN)C(=O)N(C)[C@@H]3C(=O)N[C@@H](C)C(=O)N[C@H](C(=O)O)Cc4ccc(O)c(c4)-c4cc3ccc4O)cc2)cc1.O=C(O)C(F)(F)F [EXAMPLE 3, (5S)-6-[[(7S,10S,13S)-13-carboxy-3,18-dihydroxy-10-methyl-8,11-dioxo-9,12-diazatricyclo[13.3.1.1^2,6]icosa-1(19),2(20),3,5,15,17-hexaen-7-yl](methyl)amino]-6-oxo-5-[(3-{[(4′-propylbiphenyl-4-yl)carbonyl]amino}propanoyl)amino]hexan-1-aminium trifluoroacetate]	< 10	H (H: SIC 0.062-1)		MIC [2, 7]: < 1 µg/mL; synergy in isobologram (FIC) of bacterial growth [3]: synergistic effect; effect on MRSA COL bacterial burden ([4]; Example 3 alone, 20, 40 and 80 mg/kg SC TID, thighs, relative to vehicle, FIG. 2B): negligible anti-bacterial effects; reduction in bacterial burden ([4]; co-administered with Imipenem/Cilastatin 10/50 mg/kg SC TID, deep thigh): 2-3 log; effect on MRSA COL bacterial burden ([5]; Example 3 alone, 20, 40 and 80 mg/kg SC TID, kidneys, relative to vehicle, FIG. 2A): negligible anti-bacterial effects; reduction in bacterial burden ([5]; co-administered with Imipenem/Cilastatin 6/50 mg/kg SC TID, disseminated): 2-3 log
COC(=O)[C@@H]1Cc2ccc(OC)c(c2)-c2cc(ccc2OC)[C@H](NC(=O)OC(C)(C)C)C(=O)N[C@@H](C)C(=O)N1				ring closure, yield of all isomers [6]: 20%
CCCCCCCCCc1ccc(-c2ccc(C(=O)NCCC(=O)N[C@@H](CCCCN)C(=O)N(C)[C@@H]3C(=O)N[C@@H](C)C(=O)N[C@H](C(=O)O)Cc4ccc(O)c(c4)-c4cc3ccc4O)c(F)c2)cc1 [EXAMPLE 66]	10 to 50	G (G: SIC <0.0625)	< 1	
CCCCCCCCCc1ccc(-c2ccc(C(=O)NCCC(=O)N[C@@H](CCCCN)C(=O)N(C)[C@@H]3C(=O)N[C@@H](C)C(=O)N[C@H](C(=O)O)Cc4ccc(O)c(c4)-c4cc3ccc4O)cn2)cc1 [EXAMPLE 54]	< 10	G (G: SIC <0.0625)	< 1	
CCCCCCCCCc1ccc(-c2ccc(C(=O)NCCC(=O)N3C[C@H](N)C[C@H]3C(=O)N(C)[C@@H]3C(=O)N[C@@H](C)C(=O)N[C@H](C(=O)O)Cc4ccc(O)c(c4)-c4cc3ccc4O)cc2)cc1 [EXAMPLE 40]	< 10	G (G: SIC <0.0625)	< 1	
CCCCCCCCCc1ccc(-c2cccc3c(C(=O)NCCC(=O)N[C@@H](CCCCN)C(=O)N(C)[C@@H]4C(=O)N[C@@H](C)C(=O)N[C@H](C(=O)O)Cc5ccc(O)c(c5)-c5cc4ccc5O)cnn23)cc1 [EXAMPLE 65]	10 to 50	G (G: SIC <0.0625)	1 to 8	
CCCCCCCOCc1ccc(-c2ccc(C(=O)NCCC(=O)N[C@@H](CCCCN)C(=O)N(C)[C@@H]3C(=O)N[C@@H](C)C(=O)N[C@H](C(=O)O)Cc4ccc(O)c(c4)-c4cc3ccc4O)cc2)cc1 [EXAMPLE 36]	< 10	G (G: SIC <0.0625)	< 1	
CCCc1ccc(-c2ccc(C(=O)NCCC(=O)N[C@H](CCCCN)C(=O)N(C)[C@@H]3C(=O)N[C@@H](C)C(=O)N[C@H](CO)Cc4ccc(O)c(c4)-c4cc3ccc4O)cc2)cc1.O=C(O)C(F)(F)F (mixture of isomers) [EXAMPLE 5, (5R,S)-6-[[(7S,10S,13S)-3,18-dihydroxy-13-(hydroxymethyl)-10-methyl-8,11-dioxo-9,12-diazatricyclo[13.3.1.1^2,6]icosa-1(19),2(20),3,5,15,17-hexaen-7-yl](methyl)amino]-6-oxo-5-[(3-{[(4′-propylbiphenyl-4-yl)carbonyl]amino}propanoyl)amino]hexan-1-aminium trifluoroacetate]		H (H: SIC 0.062-1)		IC50 ([1]; 20 μM peptide substrate, read-out: SpsB IC50): < 10 nM; MIC [2, 7]: < 1 µg/mL
C[C@@H]1NC(=O)[C@@H](N(C)C(=O)[C@@H]2CCCN2C(=O)CCNC(=O)c2ccc(CCCCCCCCc3ccccc3)cc2)c2ccc(O)c(c2)-c2cc(ccc2O)C[C@@H](C(=O)O)NC1=O [EXAMPLE 59]	< 10	H (H: SIC 0.062-1)	1 to 8	
